Reference: publication PMC12638379, “An innovative approach to development of new pyrazolylquinolin-2-one hybrids as dual EGFR and BRAF^V600E inhibitors” (Molecular Diversity, 2025)
Where two headings read alike, the source gives them in different places.

Tested on: NCI 60 cancer cell lines
Assay: NCI anticancer screening over a panel of 60 cancer cells, single concentration 10 µM
Type: cell-based, human
Settings: Homo sapiens, read-out: % Growth Inhibition (GI %)
Method: Ten final compounds 4a–j and five intermediates 2a–e have been selected by the National Cancer Institute (NCI) for anticancer screening over a panel of 60 cancer cells that cover a variety of histological tissues, including the central nervous system, leukemia, lung, colon, kidney, ovary, breast, and prostate, using the protocol established by the National Cancer Institute (NCI). In a primary screening, each compound was screened at a concentration of 10 µM.
Compounds 2a-e and 4a-j were selected by the National Cancer Institute (NCI) according to the protocol of the Compound Evaluation Branch of the National Cancer Institute, Bethesda, USA, for in vitro anticancer screening which refers in turn to apoptotic activity. The methodology of the NCI anticancer screening has been described in detail elsewhere (http://www.dtp.nci.nih.gov).

Question: What does the source list for `C/C(=N\Nc1ccc(C(=O)O)cc1)c1cnn(-c2cc(=O)[nH]c3ccc(Cl)cc23)c1C` [Compound 4i, (E)-4-(2-(1-(1-(6-chloro-2-oxo-1,2-dihydroquinolin-4-yl)-5-methyl-1H-pyrazol-4-yl)ethylidene)hydrazineyl)benzoic acid]?
Answer: inhibition at 10 µM (786-0, Renal cancer 786-0, 10 μM): < 5%; inhibition at 10 µM (A498, Renal cancer A498, 10 μM): < 5%; inhibition at 10 µM (A549, Non-small cell lung cancer A549/ATCC, 10 μM): < 5%; inhibition at 10 µM (ACHN, Renal cancer ACHN, 10 μM): < 5%; inhibition at 10 µM (BT-549, Breast cancer BT-549, 10 μM): < 5%; inhibition at 10 µM (CAKI-1, Renal cancer CAKI-1, 10 μM): 10.8%; inhibition at 10 µM (CCRF-CEM, Leukemia CCRF-CEM, 10 μM): < 5%; inhibition at 10 µM (COLO 205, Colon cancer COLO 205, 10 μM): < 5%; inhibition at 10 µM (DU-145, Prostate cancer DU-145, 10 μM): < 5%; inhibition at 10 µM (EKVX, Non-small cell lung cancer EKVX, 10 μM): < 5%; inhibition at 10 µM (HCC 2998, Colon cancer HCC-2998, 10 μM): < 5%; inhibition at 10 µM (HCT-15, Colon cancer HCT-15, 10 μM): < 5%; inhibition at 10 µM (HCT-116, Colon cancer HCT-116, 10 μM): < 5%; inhibition at 10 µM (HL-60, Leukemia HL-60(TB), 10 μM): 5.88%; inhibition at 10 µM (HOP-62, Non-small cell lung cancer HOP-62, 10 μM): < 5%; inhibition at 10 µM (HOP-92, Non-small cell lung cancer HOP-92, 10 μM): 36.7%; inhibition at 10 µM (HT-29, Colon cancer HT29, 10 μM): < 5%; inhibition at 10 µM (Hs-578T, Breast cancer HS 578T, 10 μM): 6.25%; inhibition at 10 µM (IGROV-1, Ovarian cancer IGROV1, 10 μM): < 5%; inhibition at 10 µM (K562, Leukemia K-562, 10 μM): 7.48%; inhibition at 10 µM (KM12, Colon cancer KM12, 10 μM): < 5%; inhibition at 10 µM (LOX IMVI, Melanoma LOX IMVI, 10 μM): < 5%; inhibition at 10 µM (Leukemia SR, 10 μM): < 5%; inhibition at 10 µM (MCF7, Breast cancer MCF7, 10 μM): 8.38%; inhibition at 10 µM (MDA-MB-231, Breast cancer MDA-MB-231/ATCC, 10 μM): 12.9%; inhibition at 10 µM (MDA-MB-435, Melanoma MDA-MB-435, 10 μM): < 5%; inhibition at 10 µM (MDA-MB-468, Breast cancer MDA-MB-468, 10 μM): < 5%; inhibition at 10 µM (MOLT-4, Leukemia MOLT-4, 10 μM): < 5%; inhibition at 10 µM (Melanoma M14, 10 μM): < 5%; inhibition at 10 µM (Melanoma MALM-3M, 10 μM): 19.4%; inhibition at 10 µM (NCI-H23, Non-small cell lung cancer NCI-H23, 10 μM): < 5%; inhibition at 10 µM (NCI-H226, Non-small cell lung cancer NCI-H226, 10 μM): < 5%; inhibition at 10 µM (NCI-H322M, Non-small cell lung cancer NCI-H322M, 10 μM): < 5%; inhibition at 10 µM (NCI-H460, Non-small cell lung cancer NCI-H460, 10 μM): < 5%; inhibition at 10 µM (NCI-H522, Non-small cell lung cancer NCI-H522, 10 μM): < 5%; inhibition at 10 µM (NCI/ADR-RES, Ovarian cancer NCI/ADR-RES, 10 μM): < 5%; inhibition at 10 µM (OVCAR-3, Ovarian cancer OVCAR-3, 10 μM): < 5%; inhibition at 10 µM (OVCAR-4, Ovarian cancer OVCAR-4, 10 μM): < 5%; inhibition at 10 µM (OVCAR-5, Ovarian cancer OVCAR-5, 10 μM): < 5%; inhibition at 10 µM (OVCAR-8, Ovarian cancer OVCAR-8, 10 μM): < 5%; inhibition at 10 µM (Prostate cancer PC-3, 10 μM): < 5%; inhibition at 10 µM (RPMI-8226, Leukemia RPMI-8226, 10 μM): < 5%; inhibition at 10 µM (RXF 393, Renal cancer RXF 393, 10 μM): < 5%; inhibition at 10 µM (SF-268, CNS Cancer SF-268, 10 μM): < 5%; inhibition at 10 µM (SF-295, CNS Cancer SF-295, 10 μM): < 5%; inhibition at 10 µM (SF-539, CNS Cancer SF-539, 10 μM): < 5%; inhibition at 10 µM (SK-MEL-2, Melanoma SK-MEL-2, 10 μM): < 5%; inhibition at 10 µM (SK-MEL-5, Melanoma SK-MEL-5, 10 μM): < 5%; inhibition at 10 µM (SK-MEL-28, Melanoma SK-MEL-28, 10 μM): < 5%; inhibition at 10 µM (SK-OV-3, Ovarian cancer SK-OV-3, 10 μM): 5.11%; inhibition at 10 µM (SN12C, Renal cancer SN12C, 10 μM): < 5%; inhibition at 10 µM (SNB-19, CNS Cancer SNB-19, 10 μM): < 5%; inhibition at 10 µM (SNB-75, CNS Cancer SNB-75, 10 μM): 5.56%; inhibition at 10 µM (SW-620, Colon cancer SW-620, 10 μM): < 5%; inhibition at 10 µM (T47D, Breast cancer T-47D, 10 μM): 6.23%; inhibition at 10 µM (TK-10, Renal cancer TK-10, 10 μM): < 5%; inhibition at 10 µM (U-251, CNS Cancer U251, 10 μM): < 5%; inhibition at 10 µM (UACC-62, Melanoma UACC-62, 10 μM): 6.04%; inhibition at 10 µM (UACC-257, Melanoma UACC-257, 10 μM): < 5%; inhibition at 10 µM (UO-31, Renal cancer UO-31, 10 μM): 29.1%
